Data on 6 compounds can be found in patent publication US20240246963A1, “BIFUNCTIONAL COMPOUNDS AND PHARMACEUTICAL USES THEREOF” (RISEN (SUZHOU) PHARMA TECH CO., LTD., priority 2022, published 2024).

One series addresses T1, RAS G12D protein (Homo sapiens, UniProt P01116, G12D).
T1 construct: host or cells: Aspc-1 (AsPC-1) cells
Put plainly: Protein degradation study (western blot) in Aspc-1 cells. It counts as cell-based. As to conditions: for percent protein degradation at 0.01 µM: 0.010 μM compound; for percent protein degradation at 0.1 µM: 0.1 μM compound; for DC50: half-maximum degradation concentration on G12D in Aspc-1 cells; for Dmax: ASPC1, G12D in Aspc-1 cells; for percent protein degradation at 0.005 µM: 0.005 μM compound. The protocol:
Aspc-1 (Cobioer, CBP60546) cells in exponential growth phase were inoculated on a 6-well cell culture plate (Corning, 3516) at density of 1E6/well; and cells in the plate were cultured in a 37° C. incubator containing 5%-carbon dioxide. The next day, test compounds were dissolved in DMSO (Sigma, RNBF5902) for the preparation of a 10-mM concentration stock solution. The stock solution was diluted with complete medium (RPMI-1640 supplemented with 10% fetal bovine serum, 1% penicillin-streptomycin), yielding working solutions of various concentrations. The plate, after the addition of compounds, was placed in a 5% carbon dioxide incubator, and incubated at 37° C. for 24 hours (final DMSO concentration was 0.1%). The plate was then removed from the incubator, and the cells were washed twice with precooled PBS (Gibco, 14190250), followed by addition of 80 μL RIPA (CST, 9806S) lysis buffer (containing protease inhibitor (Invitrogen™, AM2696)) to each well. The adherent cells were scraped off with a cell scraper, and the cell lysate was transferred to a 1.5 mL centrifuge tube followed with a 30-minute incubation on ice. The lysate was then clarified with centrifugation at 12000 rpm for 10 min at 4° C. The supernatant was transferred into a new 1.5 mL centrifuge tube, and protein concentration was measured with BCA protein detection kit (Thermo Fisher, 23225). G12D protein level was assessed by western blot. A mixture of cell lysate (40 μL) and loading buffer (10 μL, 5×SDS (Beyotime, P0015L)) was denatured in a water-bath at 95° C. for 10 min. The denatured protein sample, at 30 μg/well, was loaded into a corresponding well of a 4-20% Bis-Tris gel (Kingsley, M00656). Protein samples were initially electrophoresed at 80 V for 30 minutes, followed by 120 V for 40 minutes, until the bromophenol blue strip ran to an appropriate position. After electrophoresis, iBlot2 (Life Technologies, IB21001) was used to transfer the separated samples onto PVDF film. The PVDF membrane was washed with double-distilled water and then blocked in TBST (Thermo Scientific, 28360) buffer containing 5% non-fat milk, for 2 hours. Blocked membrane was rinsed with tris-buffered saline tween-2 (Thermo Scientific, 28360, TBST) three times, 10 minutes each. Membrane was then incubated with 1:1000 diluted RAS Gi2D primary antibody (CST, cat #14429S) overnight at 4° C. Membrane was rinsed in a way described previously followed by 1 hour incubation of secondary antibody at room temperature. After washing the film for three times with TBST, ECL color developing solution was applied, and image was captured with Biorad Chemi Doc gel imager. The band gray value was quantified (Image Lab), and protein degradation level was calculated according to the following formulas:
Level of RAS G12D protein expression=(RAS G12D−compound/β-Actin)−compound/(RAS G12D−DMSO/β-Actin−DMSO)
Level of degradation (%)=(1−Rate of RAS G12D protein expression)×100
Symbols of −, +, ++, +++, ++++, +++++ indicate that the degradation level of Ras protein induced by test compounds was 10% or less, 10 to 30%, 30 to 60%, 60 to 70%, 70 to 75%, and greater than 75%, respectively. “NT” indicates not tested.
“NT” indicates not tested.

The subject of the next series is NCI-H727 cells (G12V). Put plainly: Cell proliferation study (Cell Titer Glo, 72 hours), NCI-H727. It counts as cell-based. As to conditions: Homo sapiens. As to the method:
(§1) Aspc-1(Cobioer, CBP60546), GP2D(Cobioer, CBP60683), Mia paca2 (Cobioer, CBP60136), NCI-H358 (Cobioer, CBP60544), H727 (Cobioer, CBP60182), MKN-1 (Cobioer, CBP60486), and PSN1 (Cobioer, CBP61215) cells in exponential growth phase were seeded into a 96-well plate (Greiner, 655090) at density of 3E3/well. Cells were cultured overnight at 37° C. with 5% CO2. On the next day, cells were treated with compound at various concentrations for 72 hours in 37° C., 5% CO2 incubator (final DMSO concentration was 0.1%). After treatment, 100 μL Cell Tier Glo (Promega, G7573) were added to every well on the cell plate and incubated at room temperature (RT) for 10 minutes. Cell growth status was measured with Cell Tier Glo (Promega, G7573) following manufacturer's directions. Inhibition level was calculated according to the following formula: […]
(§2) where the “Maximum Signal” are signal of wells containing DMSO without compound; the “Minimum Signal” are signal of wells recorded at Day 0 prior to commencement of the experiment; and the “Test compound signal” are signal of wells containing compound at established concentrations.
(§3) The inhibition curve was obtained with GraphPad 7.0 software using four-parameter equation.

A further series deals with GP2D cells (G12D). Put plainly: Cell proliferation study (Cell Titer Glo, 72 hours), GP2D. It counts as cell-based. As to the method:
as §1, §2, §3

The subject of another series is AsPc-1 cells (G12D). Put plainly: Cell proliferation study (Cell Titer Glo, 72 hours), AsPc-1. It counts as cell-based. The conditions noted are these: Homo sapiens, ASPC1. The protocol: as §1, §2, §3
The test system of another series is PSN-1 cells (G12R). Put plainly: Cell proliferation study (Cell Titer Glo, 72 hours), PSN-1. The class given is cell-based. The conditions noted are these: Homo sapiens, PSN1. The protocol: as §1, §2, §3
The test system of another series is MKN1 cells (WT). Put plainly: Cell proliferation study (Cell Titer Glo, 72 hours), MKN1. The class given is cell-based. As to conditions: Homo sapiens, MKN-1. As to the method:
as §1, §2, §3

In another series the test system is NCI-H358 cells (G12C). Put plainly: Cell proliferation study (Cell Titer Glo, 72 hours), NCI-H358. The class given is cell-based. The conditions noted are these: Homo sapiens. As to the method:
as §1, §2, §3

The next series relates to Mia paca2 cells (G12C). Put plainly: Cell proliferation study (Cell Titer Glo, 72 hours), Mia paca2. As to conditions: Homo sapiens, MIA PaCa-2. The class given is cell-based. The protocol: as §1, §2, §3
A short description of series [1]: Pharmacokinetics in male ICR mice. The conditions noted are these: mouse, plasma. It counts as in vivo.
In another series the test system is GP2D cells. Put plainly: Tumor xenograft study (GP2D). It counts as in vivo, Balb/c nude mice (Nu/Nu). The protocol:
All studies were conducted in accordance with all applicable regulations and guidelines of the Institutional Animal Care and Use Committee (IACUC). Mice were maintained under pathogen-free conditions, and food and water were provided ad libitum. 6-8-week-old female, Balb/c nude mice (Nu/Nu) were injected subcutaneously with GP2D cells in 100 μL of PBS and Matrigel matrix in the right hind flank with 5×10^6 cells 50:50 cells: Matrigel. Mouse health was monitored daily, and caliper measurements began when tumors were palpable. Tumor volume measurements were determined utilizing the formula 0.5×L×W^2 in which L refers to length and W refers to width of each tumor. When tumors reached an average tumor volume of ˜200 mm^3, mice were randomized into treatment groups. The animals were divided into at least five mice per group. Mice were treated with test compound. Animals were monitored daily, and body weights and tumors were measured twice per week. “TGI” means tumor growth inhibition value.

[2] abbreviates: ASPC1, 24 h, Aspc-1 cells, 24 hours, read-out: Rate of protein degradation (%).

T1 sequence (P01116 1-188 isoform P01116-2 G12D): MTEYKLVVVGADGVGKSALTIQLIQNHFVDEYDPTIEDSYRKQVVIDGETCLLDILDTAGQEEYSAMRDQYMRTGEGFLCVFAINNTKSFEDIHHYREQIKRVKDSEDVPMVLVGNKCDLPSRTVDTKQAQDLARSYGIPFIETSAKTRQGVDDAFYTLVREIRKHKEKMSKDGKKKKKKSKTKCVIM

As to `CCc1c(F)ccc2cc(O)cc(-c3ncc4c(N5CCC[C@@](C)(O)C5)nc(OCC5(CN6CCC(C(=O)N7CCC8(CC7)CC(N7CCC(c9ccc%10c(C%11CCC(=O)NC%11=O)nn(C)c%10c9)CC7)C8)CC6)CC5)nc4c3F)c12` (stereo partly drawn) [Compound 85], the percent protein degradation at 0.01 µM at RAS G12D protein (setting [2]) lay within 60 to 70%. For the same compound, the percent protein degradation at 0.1 µM at RAS G12D protein (setting [2]) was 60 to 70%. The compound also showed a DC50 on RAS G12D protein of 1 to 10 nM. The IC50 in the series with NCI-H727 cells (G12V) is 2.46 nM; in the series on GP2D cells (G12D) it was 242 nM; in the series on AsPc-1 cells (G12D), 488 nM; in the series with PSN-1 cells (G12R), 488 nM; with MKN1 cells (WT), 405 nM.
For the compound `CCc1c(F)ccc2cc(O)cc(-c3ncc4c(N5CCC[C@@](C)(O)C5)nc(OCC5(CN6CCC7(CC6)CC(N6CCC(c8ccc9c(C%10CCC(=O)NC%10=O)nn(C)c9c8)CC6)C7)CC5)nc4c3F)c12` (stereo partly drawn) [Compound 86], the percent protein degradation at 0.01 µM at RAS G12D protein (setting [2]) was more than 75%. Further, the percent protein degradation at 0.1 µM at RAS G12D protein (setting [2]) is more than 75%. The Dmax at RAS G12D protein turned out to be 78%. Further, the half-maximal degradation concentration (DC50) at RAS G12D protein was in the range of 1 to 10 nM. Further, the half-inhibitory concentration (IC50) in the series with NCI-H358 cells (G12C) turned out to be 17.6 nM; in the series on Mia paca2 cells (G12C), 3.38 nM; in the series on NCI-H727 cells (G12V), 2.45 nM; in the series with GP2D cells (G12D) it was 0.158 nM; with AsPc-1 cells (G12D) it was 15.6 nM; in the series with PSN-1 cells (G12R), 459 nM. In addition, it took 400 nM to reach half-maximal inhibition in the series on MKN1 cells (WT) (IC50). The area under the curve AUC(0-t) in series [1] (IV (3 mg/kg)) stood at 1330 ng·h/mL; in series [1] (PO (10 mg/kg)), 103 ng·h/mL. The half-life was 14.3 h in [1] (IV (3 mg/kg)) and 6.52 h in series [1] (PO (10 mg/kg)). Also, the “TGI (%)” value with GP2D cells (IP, 10 mg/kg, q3d, 21 days) is on record as 75.8%.
As for `CCc1c(F)ccc2cc(O)cc(-c3ncc4c(N5CCC[C@@](C)(O)C5)nc(OCC5(CN6CCC(CN7CCC(c8ccc9c(C%10CCC(=O)NC%10=O)nn(C)c9c8)CC7)CC6)CC5)nc4c3F)c12` (stereo partly drawn) [Compound 101], at RAS G12D protein (setting [2]), the percent protein degradation at 0.01 µM is 70 to 75%. For the same compound, the percent protein degradation at 0.1 µM on RAS G12D protein (setting [2]) was 70 to 75%. The compound further yielded a half-maximal degradation concentration (DC50) on RAS G12D protein of 1 to 10 nM. For the same compound, the concentration for half-maximal inhibition (IC50) in the series on NCI-H358 cells (G12C) was 23.9 nM; in the series on Mia paca2 cells (G12C), 9.51 nM; with NCI-H727 cells (G12V) it was 16.4 nM; in the series with GP2D cells (G12D) it was 0.214 nM; in the series on AsPc-1 cells (G12D), 109 nM; in the series with PSN-1 cells (G12R), 463 nM. Also, the midpoint of inhibition with MKN1 cells (WT), the IC50, lay at 409 nM.
At RAS G12D protein, `CCc1c(F)ccc2cc(O)cc(-c3ncc4c(N5CCC[C@@](C)(O)C5)nc(OCC5(CN6CCC7(CC6)CC(N6CCC(c8ccc9c%10c(cccc8%10)C(=O)N9C8CCC(=O)NC8=O)CC6)C7)CC5)nc4c3F)c12` (stereo partly drawn) [Compound 137] came in with a Dmax of 62% and a 50% degradation concentration (DC50) of less than 1 nM. This compound also came in with an IC50 in the series on NCI-H358 cells (G12C) of 438 nM. 0.46 nM corresponded to half-maximal inhibition in the series with NCI-H727 cells (G12V) (IC50). The same compound gave a half-inhibitory concentration (IC50) with AsPc-1 cells (G12D) of 65.6 nM. In series [1] (IV (3 mg/kg)), this compound gave an exposure AUC(0-t) of 1280 ng·h/mL and a half-life of 7.97 h.
`CCc1c(F)ccc2cc(O)cc(-c3ncc4c(N5CCC[C@]6(CCO6)C5)nc(OCC5(CN6CCC7(CC6)CC(N6CCC(c8cc9c(cc8F)c(N8CCC(=O)NC8=O)nn9C)CC6)C7)CC5)nc4c3F)c12` [Compound 202]: at RAS G12D protein (setting [2]), the percent protein degradation at 0.005 µM was more than 75%. Further, the maximal degradation (Dmax) at RAS G12D protein turned out to be 81%. On RAS G12D protein, this compound came in with a half-maximal degradation concentration (DC50) of 1 to 10 nM. For the same compound, the IC50 in the series on NCI-H358 cells (G12C) stood at 17.1 nM; in the series on NCI-H727 cells (G12V), 3.61 nM; in the series with GP2D cells (G12D), 0.06 nM; in the series on AsPc-1 cells (G12D), 7.83 nM. In addition, the “TGI (%)” value in the series with GP2D cells (PO, 30 mg/kg, bid, 14 days) came to 75.8%.
Consider `CCc1c(F)ccc2cc(O)cc(-c3ncc4c(N5CCC[C@]6(CCO6)C5)nc(OCC5(CN6CCC7(CC6)CC(N6CCC(c8cc9c(cc8F)c(C8CCC(=O)NC8=O)nn9C)CC6)C7)CC5)nc4c3F)c12` (stereo partly drawn) [Compound 205], for which the percent protein degradation at 0.005 µM at RAS G12D protein (setting [2]) lay within 60 to 70%. For the same compound, the percent protein degradation at 0.05 µM on RAS G12D protein (ASPC1, 24 h, 0.05 μM compound, Aspc-1 cells, 24 hours, read-out: Rate of protein degradation (%)) is more than 75%. This compound displayed a Dmax on RAS G12D protein of 78%. Also, the DC50 at RAS G12D protein is less than 1 nM. The IC50 with NCI-H358 cells (G12C) turned out to be 6.24 nM; with NCI-H727 cells (G12V) it was 0.309 nM; in the series with GP2D cells (G12D), 0.289 nM; in the series with AsPc-1 cells (G12D), 2.32 nM.
